Values of other authors, collected in patent publication US7326418B2, “Identification of novel factors that block programmed cell death or apoptosis by targeting JNK” (University of Chicago, priority 2001, dated 2008).
Counter-ions that a name gives are not always drawn.

Conditions: in vivo, cited from earlier work

N.N.[Cl][Pt][Cl] [Cisplatin]
oral absorption: not absorbed orally

COc1cccc2c1C(=O)c1c(O)c3c(c(O)c1C2=O)C[C@@](O)(C(C)=O)C[C@@H]3O[C@H]1C[C@H](N)[C@H](O)[C@H](C)O1 [daunorubicin, 5,12-Naphthacenedione, (8S-cis)-8-acetyl-10-[(3-amino-2,3,6-trideoxy-a-L-lyxo-hexanopyranosyl)oxy]-7,8,9,10-tetrahydro-6,8,11-trihydroxy-10-methoxy-, hydrochloride]
oral absorption: poor | half-life of elimination: about 19 hr | secreted into the bile: ~40%

COc1cccc2c1C(=O)c1c(O)c3c(c(O)c1C2=O)C[C@@](O)([C@H](C)O)C[C@@H]3O[C@H]1C[C@H](N)[C@H](O)[C@H](C)O1 [daunorubicinol]
half-life of active metabolite: about 27 hr
